Data reported in patent US20030109582A1, “Methods and compositions for stimulating secretions from paneth cells” (priority 2001, published 2003).

Experiments:
Crohn's disease patients = assay: L-isoleucine administration to Crohn's disease patients (CDAI, abdominal symptoms); format: in vivo, human; details: Four grams/day oral, 4 weeks
Protocol: L-isoleucine was administered to nine volunteer Crohn's disease patients with mild abdominal symptoms. Four grams/day of powdered L-isoleucine divided into two doses was orally administered for 4 weeks. The CDAI (Crohn's disease activity index—Best W, Beckel J, Singleton J, Kern F J, Development of a Crohn's Disease Activity Index: National Cooperative Crohn's Disease Study. Gastroenterology 1976; 70:439-44) was calculated at the beginning and following the fourth week of the L-isoleucine administration period. All medication regiments were fixed throughout the study period.

[1] = tested on: Human Paneth cells (isolated intact human crypts from ileum); secretions tested on Salmonella typhimurium phoP-; assay: human Paneth cell secretion assay (bactericidal activity of crypt secretions); format: cell-based; details: for % Bacterial Cell Killing: S. typhimurium
Source text: An assay was developed utilizing Human Paneth cells, obtained from biopsy material. Substances were screened in vitro, by exposing the isolated human tissue material briefly, and assessing the release of antibiotic activity.
A human Paneth cell secretion assay was developed using isolated intact human crypts from ileum obtained after bowel surgery, following published techniques. About 700 isolated crypts obtained by disruption with EDTA, as estimated using a hemocytometer, were transferred into microfuge tubes. Crypts were then incubated in minimal essential media containing non-essential amino acids, with or without various substances (such as isoleucine) in a total volume of 0.5 ml for 30 min or 1 hour at 37° C. After incubation the tissue suspension was spum, and the supernatants collected 10 microliter aliquots were then mixed with either 500 or 1000 colony forming units (cfu) of Salmonella typhimurium phoP- and incubated for 1 hour at 37° C. Surviving bacteria were quantitated by plating on nutrient agar. Bactericidal assays were conducted in triplicate. Data were expressed as the percent bacteria killed under experimental conditions relative to those recovered from controls.

fecal Lactobacilli = assay: population density of viable Lactobacilli in stools of individuals with Crohn's disease; format: in vivo, human; details: after 1 week of L-isoleucine administration (dosed as in Example 2) added to low-residual formula diet; 9 hospitalized Crohn's disease individuals
Protocol: The population density of viable Lactobacilli in the stools of a group of 9 hospitalized individuals with Crohn's disease was measured before and after a course of L-isoleucine administration. Subjects in this group had been supported nutritionally exclusively by total parenteral nutrition (TPN) for more than one month. One week after a low-residual formula diet was introduced, L-isoleucine was added to the diet (dosed as in Example 2) during the fmal week of hospitalization. Yogurt and other fermented products were restricted as were antibiotics.

## CC[C@H](C)[C@H](N)C(=O)O [isoleucine, L(+)isoleucine]
Crohn's disease patients; Crohn's disease patients
  frequency of diarrhea: gradually decreased
  stool consistency: improved
Crohn's disease patients; two doses, nine Crohn's disease patients, mean CDAI at beginning 120
  mean CDAI at fourth week: 90
[1]; crypts exposed to 250 microgram/ml for 1 hour
  Bactericidal activity in secretions against S. typhimurium: detected
[1]; crypts exposed to L(+)isoleucine 250 microgram/ml for 1 hour, relative to controls
  % Bacterial Cell Killing: 63.7%
[1]; crypts exposed to L(+)isoleucine 250 microgram/ml for 1 hour, supernatant incubated with S. typhimurium 1 hour
  Surviving Bacteria: 140 ± 23
[1]; human Paneth cells, Salmonella typhimurium killing
  isoleucine-induced secretion effect, dose dependence: dose dependent
[1]; isoleucine 5 μg/ml, 30 minutes
  % Bacterial Cell Killing: 4.1%
[1]; isoleucine 50 μg/ml, 30 minutes
  % Bacterial Cell Killing: 22.5%
[1]; isoleucine 500 μg/ml, 30 minutes
  % Bacterial Cell Killing: 51.7%
Fecal Lactobacilli
  mean concentration of fecal Lactobacilli: significantly increased
